# Activity calls are given as the source filed them. The calls are words filed in the database; no cut-off is given here.
# Experiments:
# [1] = target: T1, Serine/threonine-protein kinase 17B (Homo sapiens) (UniProt O94768); conditions: dose 10.0 µM
# T1 sequence (whole entry): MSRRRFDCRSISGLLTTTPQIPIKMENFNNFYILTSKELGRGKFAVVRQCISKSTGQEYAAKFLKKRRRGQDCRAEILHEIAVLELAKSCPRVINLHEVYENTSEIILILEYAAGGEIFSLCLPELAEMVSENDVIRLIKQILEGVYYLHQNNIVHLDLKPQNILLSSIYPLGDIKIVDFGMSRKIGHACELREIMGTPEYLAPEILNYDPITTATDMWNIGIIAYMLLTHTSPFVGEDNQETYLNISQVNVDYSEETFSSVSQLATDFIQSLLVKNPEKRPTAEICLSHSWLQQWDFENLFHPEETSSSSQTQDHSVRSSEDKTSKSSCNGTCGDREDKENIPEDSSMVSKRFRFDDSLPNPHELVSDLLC
# [2] = target: T2, Dual specificity protein kinase TTK (Homo sapiens) (UniProt P33981); assay: Displacement of tracer K9 from NanoLuc-fused MPS1 (unknown origin) expressed in HEK293T cells at 10 fold IC50 preincubated for 2 hrs followed by compound washout by NanoBRET assay; assay type: cell-based
# T2 sequence (whole entry): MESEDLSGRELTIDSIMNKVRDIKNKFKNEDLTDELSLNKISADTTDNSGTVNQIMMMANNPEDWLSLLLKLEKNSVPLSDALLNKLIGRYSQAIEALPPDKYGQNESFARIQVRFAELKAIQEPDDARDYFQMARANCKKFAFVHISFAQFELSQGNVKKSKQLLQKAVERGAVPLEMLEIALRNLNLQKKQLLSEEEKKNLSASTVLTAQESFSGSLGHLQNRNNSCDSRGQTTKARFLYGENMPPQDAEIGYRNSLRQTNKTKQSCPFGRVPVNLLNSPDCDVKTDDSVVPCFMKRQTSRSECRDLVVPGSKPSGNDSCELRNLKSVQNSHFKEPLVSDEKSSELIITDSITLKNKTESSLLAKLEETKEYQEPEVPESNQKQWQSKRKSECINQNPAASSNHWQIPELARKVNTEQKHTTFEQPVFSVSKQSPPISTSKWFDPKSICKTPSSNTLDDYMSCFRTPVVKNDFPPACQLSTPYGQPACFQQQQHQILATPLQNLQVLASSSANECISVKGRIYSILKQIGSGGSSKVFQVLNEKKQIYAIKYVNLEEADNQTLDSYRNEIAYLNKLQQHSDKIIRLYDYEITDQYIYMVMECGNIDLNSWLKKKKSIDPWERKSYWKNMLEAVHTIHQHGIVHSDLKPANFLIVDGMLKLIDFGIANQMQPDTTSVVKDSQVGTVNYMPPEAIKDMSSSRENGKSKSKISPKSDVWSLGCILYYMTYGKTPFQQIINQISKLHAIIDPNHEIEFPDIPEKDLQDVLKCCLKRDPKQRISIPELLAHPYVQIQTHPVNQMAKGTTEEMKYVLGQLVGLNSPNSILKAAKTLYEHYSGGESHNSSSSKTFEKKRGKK
# [3] = target: T3, Dual specificity protein kinase TTK (Homo sapiens, UniProt P33981); assay: Displacement of tracer K9 from NanoLuc-fused MPS1 (unknown origin) expressed in HEK293T cells measured after 2 hrs by NanoBRET assay; assay type: cell-based
# T3 sequence (P33981 whole entry): T2 sequence (whole entry)
# [4] = target: T3, Dual specificity protein kinase TTK; assay: Inhibition of recombinant human full length N-terminal GST-fused MPS1 (1 to 857 residues) using histone H3 as substrate by TR-FRET assay
SMILES,ΔTm [1],Activity [2],IC50 [3],IC50 [4]
COc1ccc(Oc2cc(NCCC(F)(F)F)c3ncc(-c4ccc(C(=O)NC5CC5)c(C)c4)n3n2)c(F)c1F,19.1 °C,–,–,–
COc1cc(OC2CCN(C)CC2)ccc1Nc1ncc2c(n1)n(C1CCCC1)c(=O)n2C,11.5 °C,inactive,–,–
CCC(=O)Nc1cc(N2CCN(C)CC2)ccc1Nc1ncc2c(n1)-n1ccc(C(=O)Nc3c(CC)cccc3CC)c1CC2,17.4 °C,–,32.7 nM,9.06 nM

# Reference: ChEMBL document CHEMBL5038669, “Development of the First Covalent Monopolar Spindle Kinase 1 (MPS1/TTK) Inhibitor” (J Med Chem, 2022)
